According to patent publication US9034825B2, “Treatment of myocardial injury with humanin analogs” (Albert Einstein College of Medicine of Yeshiva University, priority 2007, dated 2015):

Columns and labels:
IGFBP-3 = IGFBP-3 (Homo sapiens, UniProt P17936); test: Dot blots probed with radiolabeled IGFBP-3; assay type: binding; details: FIG. 17A
Experimental: For acute signaling studies, rats were injected ICV with either aCSF, 20 μg of HN or F6A (dissolved in aCSF) over 5 min, and sacrificed 30 min later. Tissue sample were obtained from mediobasal hypothalamus, liver and muscle. Samples were also obtained from these tissues at the end of the clamp and western blot analysis was performed as described previously (Muzumdar et al. 2003) The blots were scanned using the LI-COR Odyssey (LI-COR, Lincoln, Nebr., USA) and quantified using Odyssey 2.0 software based on direct fluorescence measurement. Dot blots were performed by blotting 50 ng of humanin, HN-analogues, and IGF on nitrocellulose, incubating with 125-I-labeled-IGFBP-3, autoradiography and scanning.

NONcNZO10/LtJ mice = test: IP glucose tolerance test in NONcNZO10/LtJ mice; assay type: in vivo, mouse; details: IP 25 microgram twice a day for 14 days; IP GTT on D15
Experimental: NONcNZO10/LtJ mice were injected IP with HNGF6A 25 microgram twice a day for 14 days. Mice were subjected to 6 hour fast followed by IP GTT on D15. Baseline glucose measurement was taken and the mice were injected IP with 0.5 mg/g glucose. Glucose was sampled at 0 and 90, 120 min.

normal MEFs = test: Apoptosis ELISA in normal mouse embryonic fibroblasts; assay type: cell-based; details: 24 hours, 100 nM of peptides
Experimental: (§1) Mouse embryonic fibroblasts derived from normal and IGFBP3 KO mice were used to test the effects of humanin and its analogues on survival. Apoptosis ELISA was used as an output measure and cells were treated for 24 hours with 100 nM of peptides. […] Thus, the HNGF6A humanin analogue has non-obvious properties that are different from previously described humanin derivatives and has increased potency as a result of its specific molecular alteration leading to reduced IGFBP-3 binding.

BP3KO MEFs = test: Apoptosis ELISA in IGFBP3 KO mouse embryonic fibroblasts; assay type: cell-based; details: 24 hours, 100 nM of peptides
Experimental: as §1

Sprague-Dawley rats = test: Intravenous infusion of humanin or analogs during hyperinsulinemic clamp; assay type: in vivo, rat; details: infused peripherally 0.0375 mg/kg/hr

IGFBP-3, sequence (P17936 28-291): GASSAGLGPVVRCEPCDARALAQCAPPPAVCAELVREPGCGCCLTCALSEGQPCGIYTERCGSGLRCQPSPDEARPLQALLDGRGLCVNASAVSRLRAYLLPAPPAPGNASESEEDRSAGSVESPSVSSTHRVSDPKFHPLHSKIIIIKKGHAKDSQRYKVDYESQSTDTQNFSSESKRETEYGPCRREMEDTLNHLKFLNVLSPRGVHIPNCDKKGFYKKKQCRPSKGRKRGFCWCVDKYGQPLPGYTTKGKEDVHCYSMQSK

With “MAPRGASCLLLLTGEIDLPVKRRA (Humanin analog HNGF6A) [HN with alanine at 6th amino acid]” the “ability to bind IGFBP-3” value (IGFBP-3) was “completely devoid of the ability to bind IGFBP-3”, the “glucose levels at 90 and 120 min” value (NONcNZO10/LtJ mice) was “significantly lower” and the glucose tolerance (NONcNZO10/LtJ mice) was “significantly better glucose tolerance”. The “potency on survival (Apoptosis ELISA)” value (normal MEFs) was “more potent”, the “potency on survival (Apoptosis ELISA)” value (BP3KO MEFs) was “equal potency” and the “glucose infusion rates during clamp” value (Sprague-Dawley rats) was “significantly higher”. For the same sequence, the hepatic glucose production (Sprague-Dawley rats; clamp) was “suppressive effects” and the peripheral glucose uptake (Sprague-Dawley rats; clamp) was “significant increase”.
